Consider 35 molecules from patent publication US20250115569A1, “SULFONAMIDE COMPOUNDS FOR THE TREATMENT OF NEUROLOGICAL CONDITIONS” (LARIO THERAPEUTICS LIMITED, priority 2021, published 2025).

The structures appear in SMILES notation.

Chain of Cav2.3 (Q15878 whole entry, looked up): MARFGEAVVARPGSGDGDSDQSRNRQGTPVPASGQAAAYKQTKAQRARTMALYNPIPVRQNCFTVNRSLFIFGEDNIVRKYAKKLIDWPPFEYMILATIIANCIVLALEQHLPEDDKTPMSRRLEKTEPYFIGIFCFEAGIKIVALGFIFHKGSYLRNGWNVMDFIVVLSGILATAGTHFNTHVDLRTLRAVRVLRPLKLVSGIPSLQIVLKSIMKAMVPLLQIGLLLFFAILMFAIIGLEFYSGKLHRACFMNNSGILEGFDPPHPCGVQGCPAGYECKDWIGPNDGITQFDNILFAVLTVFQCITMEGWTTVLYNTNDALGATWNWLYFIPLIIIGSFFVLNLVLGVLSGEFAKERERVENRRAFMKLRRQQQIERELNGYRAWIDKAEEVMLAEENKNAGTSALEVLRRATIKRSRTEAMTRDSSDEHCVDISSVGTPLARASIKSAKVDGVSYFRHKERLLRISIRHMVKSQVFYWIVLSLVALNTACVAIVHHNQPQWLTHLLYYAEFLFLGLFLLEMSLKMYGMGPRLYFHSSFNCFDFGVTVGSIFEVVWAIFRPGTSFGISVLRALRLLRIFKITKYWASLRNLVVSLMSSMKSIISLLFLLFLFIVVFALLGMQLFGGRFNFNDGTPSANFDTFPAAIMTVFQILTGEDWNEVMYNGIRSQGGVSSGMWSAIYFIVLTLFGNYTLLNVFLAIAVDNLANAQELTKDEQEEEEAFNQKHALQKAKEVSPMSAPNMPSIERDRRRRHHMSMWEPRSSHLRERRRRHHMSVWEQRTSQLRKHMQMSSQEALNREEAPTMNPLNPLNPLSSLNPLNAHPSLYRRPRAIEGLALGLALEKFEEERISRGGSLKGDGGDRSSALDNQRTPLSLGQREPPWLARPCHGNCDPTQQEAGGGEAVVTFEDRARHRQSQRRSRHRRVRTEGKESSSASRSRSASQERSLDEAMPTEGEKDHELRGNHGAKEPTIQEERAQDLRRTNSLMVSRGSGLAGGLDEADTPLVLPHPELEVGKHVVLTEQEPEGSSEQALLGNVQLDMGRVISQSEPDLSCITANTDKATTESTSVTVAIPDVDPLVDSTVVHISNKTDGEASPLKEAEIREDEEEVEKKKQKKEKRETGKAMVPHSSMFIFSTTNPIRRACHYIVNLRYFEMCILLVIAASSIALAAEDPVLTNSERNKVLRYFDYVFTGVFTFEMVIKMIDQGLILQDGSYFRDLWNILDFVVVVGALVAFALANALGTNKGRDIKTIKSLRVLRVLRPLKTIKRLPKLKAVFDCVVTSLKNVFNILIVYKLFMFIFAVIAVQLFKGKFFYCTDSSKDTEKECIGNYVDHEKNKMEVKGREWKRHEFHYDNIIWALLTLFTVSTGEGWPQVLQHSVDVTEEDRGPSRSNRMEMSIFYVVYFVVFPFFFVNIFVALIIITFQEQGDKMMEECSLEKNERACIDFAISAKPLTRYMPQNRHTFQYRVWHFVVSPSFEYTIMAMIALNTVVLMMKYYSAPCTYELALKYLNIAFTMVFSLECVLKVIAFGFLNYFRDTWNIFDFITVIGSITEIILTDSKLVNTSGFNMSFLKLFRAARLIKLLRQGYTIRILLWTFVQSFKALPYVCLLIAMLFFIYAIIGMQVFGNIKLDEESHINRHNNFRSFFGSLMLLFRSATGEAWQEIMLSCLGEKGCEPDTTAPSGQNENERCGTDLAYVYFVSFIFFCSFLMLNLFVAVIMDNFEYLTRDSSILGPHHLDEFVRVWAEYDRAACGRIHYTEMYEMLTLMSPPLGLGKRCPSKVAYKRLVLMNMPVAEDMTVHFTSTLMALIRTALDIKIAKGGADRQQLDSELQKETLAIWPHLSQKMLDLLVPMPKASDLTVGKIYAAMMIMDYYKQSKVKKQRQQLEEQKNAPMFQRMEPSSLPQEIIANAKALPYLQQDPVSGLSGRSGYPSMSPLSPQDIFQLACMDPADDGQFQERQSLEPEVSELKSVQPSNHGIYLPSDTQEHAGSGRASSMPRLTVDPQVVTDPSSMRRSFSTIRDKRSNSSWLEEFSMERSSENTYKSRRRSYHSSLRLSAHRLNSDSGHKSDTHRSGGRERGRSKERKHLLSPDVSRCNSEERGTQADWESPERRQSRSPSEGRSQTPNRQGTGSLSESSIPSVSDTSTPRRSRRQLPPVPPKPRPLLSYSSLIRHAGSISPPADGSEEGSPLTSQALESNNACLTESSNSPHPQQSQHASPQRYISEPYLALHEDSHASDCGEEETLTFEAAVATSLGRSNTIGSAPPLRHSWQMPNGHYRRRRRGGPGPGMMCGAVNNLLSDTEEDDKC

One assay concerns the target Cav2.3 (Homo sapiens, UniProt Q15878). Nature of the assay: Human Cav2.3 channel calcium-influx assay. It counts as cell-based. As to conditions: Fluo8 fluorescence, HEK-293 T-Rex/Kir2.1/Cav2.3e cells, without pluronic acid, read-out: Cav2.3 (pIC50) (converted). The gist of the method: (§1)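 Signal = peak fluorescence (5–130 s) minus baseline (1–2 s), normalized to neutral (0) and inhibitor (−100) controls as % effect. Depolarization used final 20 mM KCl, 130 mM NaCl, 2 mM CaCl2, after 3 min RT compound exposure (30 μM top, half-log, 8 points, 0.3% DMSO) in doxycycline-induced HEK-293 T-Rex/Kir2.1/Cav2.3e-β4-α2δ1 cells with Fluo8 NW.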
`CCN([C@H](c1ccc(F)cc1)C(F)(F)F)S(=O)(=O)c1nn(CC)c2ncccc12` [Example 190, (R)—N,1-diethyl-N-(2,2,2-trifluoro-1-(4-fluorophenyl)ethyl)-1H-pyrazolo[3,4-b]pyridine-3-sulfonamide]: the IC50 is 1 µM.

Consider `CCN([C@H](c1ccc(F)cc1)C(F)(F)F)S(=O)(=O)c1ccc2[nH]nnc2c1` [Example 189, (R)—N-ethyl-N-(2,2,2-trifluoro-1-(4-fluorophenyl)ethyl)-1H-benzo[d][1,2,3]triazole-5-sulfonamide], for which the IC50 is 0.166 µM.

As to `CCN([C@@H](c1ccc(OC)cc1)C(F)(F)F)S(=O)(=O)c1cncc(F)c1` [Example 256, (S)—N-ethyl-5-fluoro-N-(2,2,2-trifluoro-1-(4-methoxyphenyl)ethyl)pyridine-3-sulfonamide], the IC50 is 4.27 µM.

`CCN([C@H](c1ccc(F)cc1)C(F)(F)F)S(=O)(=O)c1cnc2ncccn12` [Example 177, (R)—N-ethyl-N-(2,2,2-trifluoro-1-(4-fluorophenyl)ethyl)imidazo[1,2-a]pyrimidine-3-sulfonamide]: the IC50 is 0.0339 µM.

Regarding `COc1ccc([C@H](N(C)S(=O)(=O)C2CCOCC2)C(F)(F)F)cc1` [Example 128, (S)—N-methyl-N-(2,2,2-trifluoro-1-(4-methoxyphenyl)ethyl)tetrahydro-2H-pyran-4-sulfonamide], the IC50 is 14.1 µM.

With `CCN(C(c1ccc(F)cc1)C(F)(F)F)S(=O)(=O)c1ccc(C(=O)N(C)C)s1` (centres unmarked) [Example 25, 5-(N-ethyl-N-(2,2,2-trifluoro-1-(4-fluorophenyl)ethyl)sulfamoyl)-N,N-dimethylthiophene-2-carboxamide], the IC50 was 0.282 µM.

Regarding `CCN([C@H](c1ccc(F)cc1)C(F)(F)F)S(=O)(=O)c1cnc2nsnc2c1` [Example 147, (R)—N-ethyl-N-(2,2,2-trifluoro-1-(4-fluorophenyl)ethyl)-[1,2,5]thiadiazolo[3,4-b]pyridine-6-sulfonamide], the IC50 is 0.158 µM.

Take `CN([C@H](c1ccc(Cl)cc1)C(F)(F)F)S(=O)(=O)c1cccnn1` [Example 209, (R)—N-(1-(4-chlorophenyl)-2,2,2-trifluoroethyl)-N-methylpyridazine-3-sulfonamide]: the IC50 is 0.191 µM.

In the case of `CN(C(c1ccc(C(F)(F)F)cc1)C(F)(F)F)S(=O)(=O)c1cncc(C#N)c1` (centres unmarked) [Example 67, 5-Cyano-N-methyl-N-(2,2,2-trifluoro-1-(4-(trifluoromethyl)phenyl)ethyl)pyridine-3-sulfonamide], the IC50 was 0.107 µM.

In the case of `Cc1ccc([C@@H](N(C)S(=O)(=O)c2cn3ccncc3n2)C(F)(F)F)cc1` [Example 197, (R)—N-methyl-N-(2,2,2-trifluoro-1-(p-tolyl)ethyl)imidazo[1,2-a]pyrazine-2-sulfonamide], the IC50 was 6.17 µM.

Consider `CN([C@H](c1ccc(F)cc1)C(F)(F)F)S(=O)(=O)c1cncc(C#N)c1` [Example 274, (R)-5-Cyano-N-methyl-N-(2,2,2-trifluoro-1-(4-fluorophenyl)ethyl)pyridine-3-sulfonamide], for which the IC50 was 0.1 µM.

On to `COc1ccc([C@@H](N(C)S(=O)(=O)c2cncc(F)c2)C(F)(F)F)cc1` [Example 221, (R)-5-fluoro-N-methyl-N-(2,2,2-trifluoro-1-(4-methoxyphenyl)ethyl)pyridine-3-sulfonamide], for which the IC50 is 0.234 µM.

`CN([C@H](c1ccc(Cl)cc1)C(F)(F)F)S(=O)(=O)c1cn2ccnc2cn1` [Example 199, (R)—N-(1-(4-chlorophenyl)-2,2,2-trifluoroethyl)-N-methylimidazo[1,2-a]pyrazine-6-sulfonamide]: the IC50 was 1.15 µM.

Consider `CN([C@H](c1ccc(F)cc1)C(F)(F)F)S(=O)(=O)c1cncc(F)c1` [Example 223, (R)-5-fluoro-N-methyl-N-(2,2,2-trifluoro-1-(4-fluorophenyl)ethyl)pyridine-3-sulfonamide], for which the IC50 is 0.145 µM.

Turning to `CCN([C@H](c1ccc(F)cc1)C(F)(F)F)S(=O)(=O)c1cncc(F)c1` [Example 261, (R)—N-ethyl-5-fluoro-N-(2,2,2-trifluoro-1-(4-fluorophenyl)ethyl)pyridine-3-sulfonamide], the IC50 was 0.0117 µM.

In the case of `CN([C@H](c1ccc(F)cc1)C(F)(F)F)S(=O)(=O)c1ccc(F)s1` (stereo in doubt) [Example 19, 5-fluoro-N-methyl-N-(2,2,2-trifluoro-1-(4-fluorophenyl)ethyl)thiophene-2-sulfonamide], the IC50 was 2.4 µM.

For `CCN(C(c1ccc(F)cc1)C(F)(F)F)S(=O)(=O)c1ccc(=O)n(C)c1` (centres unmarked) [Example 100, N-ethyl-1-methyl-6-oxo-N-(2,2,2-trifluoro-1-(4-fluorophenyl)ethyl)-1,6-dihydropyridine-3-sulfonamide], the IC50 is 0.38 µM.

On to `CCN([C@H](c1ccc(OC)cc1)C(F)(F)F)S(=O)(=O)C1CCOCC1` [Example 127, (R)—N-ethyl-N-(2,2,2-trifluoro-1-(4-methoxyphenyl)ethyl)tetrahydro-2H-pyran-4-sulfonamide], for which the IC50 is 0.309 µM.

Consider `CCN(C(c1ccc(F)cc1)C(F)(F)F)S(=O)(=O)c1cnc(C(N)=O)s1` (centres unmarked) [Example 46, 5-(N-ethyl-N-(2,2,2-trifluoro-1-(4-fluorophenyl)ethyl)sulfamoyl)thiazole-2-carboxamide], for which the IC50 is 0.468 µM.

Consider `CCN([C@H](c1ccc(F)cc1)C(F)(F)F)S(=O)(=O)c1cnc(C#N)s1` [Example 84], for which the IC50 is 0.871 µM.

Turning to `CN([C@H](c1ccc(Cl)cc1)C(F)(F)F)S(=O)(=O)c1cnc2ccccn12` [Example 187, (R)—N-(1-(4-chlorophenyl)-2,2,2-trifluoroethyl)-N-methylimidazo[1,2-a]pyridine-3-sulfonamide], the IC50 is 0.0191 µM.

As to `N#Cc1cncc(S(=O)(=O)N(CCF)[C@H](c2ccc(F)cc2)C(F)(F)F)c1` [Example 66, (R)-5-cyano-N-(2-fluoroethyl)-N-(2,2,2-trifluoro-1-(4-fluorophenyl)ethyl)pyridine-3-sulfonamide], the IC50 is 0.0407 µM.

`CN([C@H](c1ccc(Cl)cc1)C(F)(F)F)S(=O)(=O)c1ccn2nncc2c1` [Example 202, (R)—N-(1-(4-chlorophenyl)-2,2,2-trifluoroethyl)-N-methyl-[1,2,3]triazolo[1,5-a]pyridine-5-sulfonamide]: the IC50 is 0.288 µM.

`CCN(C(c1ccc(F)cc1)C(F)(F)F)S(=O)(=O)c1ncc(C#N)s1` (centres unmarked) [Example 80, 5-Cyano-N-ethyl-N-(2,2,2-trifluoro-1-(4-fluorophenyl)ethyl)thiazole-2-sulfonamide]: the IC50 is 0.447 µM.

As to `Cc1cc([C@@H](N(C)S(=O)(=O)c2cncc(F)c2)C(F)(F)F)ccc1C(F)(F)F` [Example 270, (R)-5-fluoro-N-methyl-N-(2,2,2-trifluoro-1-(3-methyl-4-(trifluoromethyl)phenyl)ethyl)pyridine-3-sulfonamide], the IC50 is 0.49 µM.

With `CCN([C@H](c1ccc(F)cc1)C(F)(F)F)S(=O)(=O)c1cn2ccccc2n1` [Example 142, (R)—N-ethyl-N-(2,2,2-trifluoro-1-(4-fluorophenyl)ethyl)imidazo[1,2-a]pyridine-2-sulfonamide], the IC50 was 1.07 µM.

As for `CCN([C@H](c1ccc(F)cc1)C(F)(F)F)S(=O)(=O)c1cnc2cccnn12` [Example 176, (R)—N-ethyl-N-(2,2,2-trifluoro-1-(4-fluorophenyl)ethyl)imidazo[1,2-b]pyridazine-3-sulfonamide], the IC50 is 0.0912 µM.

With `CN([C@@H](c1ccc(F)cc1)C(F)(F)F)S(=O)(=O)c1cncc(C#N)c1` [Example 273, (S)-5-Cyano-N-methyl-N-(2,2,2-trifluoro-1-(4-fluorophenyl)ethyl)pyridine-3-sulfonamide], the IC50 is 1.48 µM.

Consider `CCN([C@H](c1ccc(F)cc1)C(F)(F)F)S(=O)(=O)c1n[nH]c2cccnc12` [Example 174, (R)—N-ethyl-N-(2,2,2-trifluoro-1-(4-fluorophenyl)ethyl)-1H-pyrazolo[4,3-b]pyridine-3-sulfonamide], for which the IC50 was 18.6 µM.

As to `CN(C(c1ccc(F)cc1)C(F)(F)F)S(=O)(=O)c1cncc(C#N)c1` (racemic) [Example 272, 5-Cyano-N-methyl-N-(2,2,2-trifluoro-1-(4-fluorophenyl)ethyl)pyridine-3-sulfonamide], the IC50 is 0.155 µM.

For the molecule `CCN([C@H](c1ccc(F)cc1)C(F)(F)F)S(=O)(=O)c1cnc2[nH]ccc2n1` [Example 140, (R)—N-ethyl-N-(2,2,2-trifluoro-1-(4-fluorophenyl)ethyl)-5H-pyrrolo[2,3-b]pyrazine-2-sulfonamide], the IC50 is 0.562 µM.

As to `CCN(C(c1ccc(F)cc1)C(F)(F)F)S(=O)(=O)c1ccc2c(c1)S(=O)(=O)CC2` (centres unmarked) [Example 28, N-ethyl-N-(2,2,2-trifluoro-1-(4-fluorophenyl)ethyl)-2,3-dihydrobenzo[b]thiophene-6-sulfonamide 1,1-dioxide], the IC50 is 0.355 µM.

The subject of another assay is Human Cav2.3 channel. Nature of the assay: Human Cav2.3 channel calcium-influx assay. The class given is cell-based. Conditions: Fluo8 fluorescence, HEK-293 T-Rex/Kir2.1/Cav2.3e cells, without pluronic acid. The procedure, abridged: as §1
As to `COc1ccc(S(=O)(=O)N(C)[C@H](c2ccc(Cl)cc2)C(F)(F)F)nn1` [Example 207, (R)—N-(1-(4-chlorophenyl)-2,2,2-trifluoroethyl)-6-methoxy-N-methylpyridazine-3-sulfonamide], the “Cav2.3 (pIC50)” value was 6.02.

In the case of `CCN(C(c1ccc(OC)cc1)C(F)(F)F)S(=O)(=O)C1CCOCC1` (centres unmarked) [Example 124, N-ethyl-N-(2,2,2-trifluoro-1-(4-methoxyphenyl)ethyl)tetrahydro-2H-pyran-4-sulfonamide], the “Cav2.3 (pIC50)” value is reported as 6.11.

`Cc1ccc(S(=O)(=O)N(C)[C@H](c2ccc(C(F)(F)F)cc2)C(F)(F)F)cn1` [Example 266, (R)—N,6-dimethyl-N-(2,2,2-trifluoro-1-(4-(trifluoromethyl)phenyl)ethyl)pyridine-3-sulfonamide]: the “Cav2.3 (pIC50)” value is recorded as 6.54.
